Source: patent US12227494B2, “Polymorphisms of HM30181 mesylate” (ATHENEX R&D, LLC, priority 2020, dated 2025)

How the values were obtained:
[1] = Dynamic Vapor Sorption (DVS) with XRPD post-DVS; assay type: physicochemical; conditions: for Hygroscopicity by DVS (in words) / Water absorbed by DVS: 0-95% RH
Description: (§1) XRPD was performed using a Panalytical X'Pert3™ Powder XRPD and on a Si zero-background holder. The 2θ position was calibrated against a Panalytical™ 640 Si powder standard. Details of XRPD used in the experiments are listed below in Table 20.
Dynamic Vapor Sorption (DVS) was measured using a SMS (Surface Measurement Systems™) DVS Intrinsic. Parameters for DVS test are listed below in Table 24.

[2] = XRPD of polymorphs after air-drying or vacuum-drying (solid form stability); assay type: physicochemical
Description: Large scale studies were performed with HM30181 mesylate Type A starting material on a 200 mg scale as described below. Solids were isolated by vacuum filtration. The wet cakes from filtration from DMA, DMF, and NMP slurries were washed with 1 mL to 2 mL methanol to remove solvents. […]
as §1

In the case of COc1cc2c(cc1OC)CN(CCc1ccc(-n3nnc(-c4cc(OC)c(OC)cc4NC(=O)c4cc(=O)c5ccccc5o4)n3)cc1)CC2.CS(=O)(=O)O [HM30181 mesylate Type A, HM30181 mesylate], the “Hygroscopicity by DVS (in words)” value [1] is reported as “hygroscopic”, the “Water absorbed by DVS” value [1] is reported as 2.26% and the “Hygroscopicity by DVS (in words)” value ([1]; listed as Type A) is reported as “Monohydrate (hygroscopic”. For the same molecule, the “Water absorbed by DVS” value ([1]; listed as Type A) was “to 2.26% at 95% RH)”, the “XRPD pattern post-DVS” value ([1]; after DVS 0-95% RH) was “no change in XRPD pattern observed” and the “XRPD (air-dry)” value ([2]; air-dried solids from Crash cooling 50° C.-->−20° C., ACN 10 mL, Exp. 6007235-17-C12) was “Type C”. The “XRPD (air-dry)” value ([2]; air-dried solids from Slow Cooling 50° C.-->4° C., ACN 10 mL, Exp. 6007235-17-C4) was “Type C” and the “XRPD (air-dry)” value ([2]; air-dried solids from Slow Cooling 50° C.-->4° C., DCM 10 mL, Exp. 6007235-17-C5) was “Type C”.
